According to patent US20250129055A1, “GLUCOSIDE DERIVATIVE, AND PREPARATION METHOD THEREFOR AND APPLICATION THEREOF” (BEIJING INCREASE INNOVATIVE DRUG CO., LTD., priority 2020, published 2025):

Legend:
Alloxan diabetic mice = assay: Efficacy in Alloxan diabetes model mice; format: in vivo
Description: Test Example 3 Research on efficacy of the compounds of the present invention in in vivo anti-Alloxan diabetes model mice
Alloxan diabetes mice were used. Normal ICR mice (male, 22-24 g) were randomly divided into groups including normal group, model group (con), positive control group and test compound groups with four different doses (n=11), and the mice without injection of Alloxan were in a normal control group (n=10).
Mice were administered with drugs by gavage.
Single administration: Mice were fasted for 3 h, and then the fasting blood (0 min) was collected. Then the mice in each group were administered with drugs by gavage. After 1 h, they were administered with a glucose ([…]) solution. Blood was collected at 30 min, 60 min, 120 min, and 180 min after the glucose administration. The blood glucose level was measured using glucose oxidase-peroxidase method, and the area under the blood glucose curve was calculated.
On the 6th day of continuous administration, under the condition of no fasting, blood samples were collected from mice before administration (0 h), 1 h, 2 h, 4 h, 8 h and 24 h after administration to measure blood glucose.
On the 9th day of continuous administration, the mice were fasted for 1 h and then administered with drugs by gavage. An oral glucose tolerance test (OGTT) was performed 1 h after administration.
On the 16th day of continuous administration, under the condition of no fasting, urine samples were collected from mice 1 h after administration to measure the concentration of urine glucose.
On the 22nd day of continuous administration, the mice were fasted for 1 h and then administered with drugs by gavage, and blood samples were collected to measure the fasting blood glucose 1 h after administration.
On the 28th day of continuous administration, under the condition of no fasting, blood samples were collected from mice 1 h after administration to measure the random blood glucose.
On the 32nd day of continuous administration, under the condition of no fasting, blood samples were collected from mice to measure glycosylated hemoglobin (HbA1c).
The data were expressed as mean±SEM (n=10-11). The comparison between multiple groups was performed by one-way analysis of variance, and the comparison between two groups was performed by Dunnett's t test. Statistical graphing was performed using Graphpad Prism software.

SGLT2 = SGLT2 (Homo sapiens (Human), UniProt P31639); assay: In vitro SGLT2 inhibitory activity: 1-NBDG uptake by CHO-SGLT2 cells; format: cell-based; settings: read-out: Inhibition rate of compounds on SGLT2 (%)
SGLT2, sequence (P31639 whole entry): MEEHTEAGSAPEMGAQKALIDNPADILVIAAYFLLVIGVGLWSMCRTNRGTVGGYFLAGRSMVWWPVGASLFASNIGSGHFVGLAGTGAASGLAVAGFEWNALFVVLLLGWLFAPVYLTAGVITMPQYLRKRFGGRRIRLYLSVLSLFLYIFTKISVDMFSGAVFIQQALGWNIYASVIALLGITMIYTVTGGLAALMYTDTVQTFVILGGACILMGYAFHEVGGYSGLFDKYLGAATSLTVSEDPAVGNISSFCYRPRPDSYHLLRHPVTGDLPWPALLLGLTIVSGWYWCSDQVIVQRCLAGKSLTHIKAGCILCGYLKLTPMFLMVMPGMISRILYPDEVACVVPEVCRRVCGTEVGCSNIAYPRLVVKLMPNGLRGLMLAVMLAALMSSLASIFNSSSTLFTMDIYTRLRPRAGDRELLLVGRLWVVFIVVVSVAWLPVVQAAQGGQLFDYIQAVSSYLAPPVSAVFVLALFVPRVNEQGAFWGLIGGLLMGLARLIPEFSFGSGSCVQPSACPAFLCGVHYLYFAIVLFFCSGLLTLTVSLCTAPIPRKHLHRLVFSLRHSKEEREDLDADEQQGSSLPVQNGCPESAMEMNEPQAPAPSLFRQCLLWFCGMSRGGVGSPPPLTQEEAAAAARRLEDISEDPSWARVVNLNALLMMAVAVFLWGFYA
Description: The effect of the compounds on SGLT2-mediated glucose uptake was investigated by establishing an SGLT2 overexpression cell model and using the fluorescent glucose (2-deoxy-1-[(7-nitro-2,1,3-benzoxadiazol-4-yl)amino]-D-glucose, 1-NBDG) tracer method to screen out candidate compounds with SGLT2 inhibitory activity.
The humanized SGLT2 overexpression cells (CHO-SGLT2) constructed from Chinese hamster ovary (CHO) cells were cultured in 1640 medium (Gibco) containing 10% fetal bovine serum (Gibco, 10270), subcultured at a ratio of 1:3, and replaced with new culture medium 3 times every week. Fluorescence detection cell culture plates and other culture flasks were purchased from Corning Company. […] Appropriate amounts of all compounds were weighed, prepared into 100 mM stock solutions with DMSO, and stored at 4° C. in the dark.
Before the 1-NBDG uptake test, CHO-SGLT2 cells were digested and seeded in a 96-well cell culture plate with a cell number of 40,000/well. After the cells were cultured for 48 h, the medium was discarded, and 100 μl of choline buffer was added to each well. After the cells were starved at 37° C. for 30 min, the choline buffer was discarded and 100 μl of the newly prepared Na^+ sodium buffer containing […] 1-NBDG and the test compounds (Compound) was added. The solvent DMSO was used as the negative control (Control) for the test compounds.
The Na^+ sodium buffer without 1-NBDG was used as the blank control (Blank). After 1 h of culture, the incubation solution was discarded. The cells were washed with choline buffer solution 3 times, and then 50 μl of neutral lysate was added to each well to lyse the cells on ice for 10 min. The fluorescence value of each well was detected using a multi-functional microplate reader at […].
At least 3 experimental replicates were set for each compound at indicated concentrations, and the data were expressed as mean±SEM. Uptake amount of 1-NBDG by cells=fluorescence value1-NBDG-fluorescence valueBlank. Inhibition rate on uptake amount of SGLT2 glucose (%)=(uptake amountcontrol−uptake amountcompound)/uptake amountcontrol×100%. Concentration-inhibition rate curves were plotted using Graphpad Prism software, and IC50 values were calculated accordingly.

CCOc1ccc(Cc2cc([C@@H]3O[C@H](CO)[C@@H](O)[C@H](O)[C@H]3O)ccc2Cl)cc1 [Dapagliflozin, reference compound]
Concentration of fasting blood glucose, the 9th day (Alloxan diabetic mice; 2.0 mg/kg, 9th day): 256.7 ± 14.4 mg/dL | Concentration of fasting blood glucose, the 22nd day (Alloxan diabetic mice; 2.0 mg/kg, 22nd day): 316.5 ± 18.6 mg/dL | HbA1c (Alloxan diabetic mice; 2.0 mg/kg, 32nd day): 6.6 ± 0.5% | AUC of blood glucose (Alloxan diabetic mice; 2.0 mg/kg, OGTT on the 9th day): 463.3 ± 28.0 mg·h/dL | Concentration of blood glucose 0 min (Alloxan diabetic mice; 2.0 mg/kg, OGTT on the 9th day, 0 min): 256.7 ± 14.4 mg/dL | Concentration of blood glucose 30 min (Alloxan diabetic mice; 2.0 mg/kg, OGTT on the 9th day, 30 min): 278.3 ± 17.6 mg/dL | Concentration of blood glucose 60 min (Alloxan diabetic mice; 2.0 mg/kg, OGTT on the 9th day, 60 min): 227.3 ± 13.5 mg/dL | Concentration of blood glucose 120 min (Alloxan diabetic mice; 2.0 mg/kg, OGTT on the 9th day, 120 min): 178.9 ± 20.8 mg/dL | AUC of blood glucose (Alloxan diabetic mice; 2.0 mg/kg, non-fasting, 6th day, 0-24 h): 13216 ± 440.8 mg·h/dL | Concentration of blood glucose 1 h (Alloxan diabetic mice; 2.0 mg/kg, non-fasting, 6th day, 1 h after administration): 433.7 ± 19.5 mg/dL | Concentration of blood glucose 2 h (Alloxan diabetic mice; 2.0 mg/kg, non-fasting, 6th day, 2 h after administration): 425.1 ± 22.5 mg/dL | Concentration of blood glucose 4 h (Alloxan diabetic mice; 2.0 mg/kg, non-fasting, 6th day, 4 h after administration): 343.1 ± 17.8 mg/dL | Concentration of blood glucose 8 h (Alloxan diabetic mice; 2.0 mg/kg, non-fasting, 6th day, 8 h after administration): 522.7 ± 34.0 mg/dL | Concentration of blood glucose 24 h (Alloxan diabetic mice; 2.0 mg/kg, non-fasting, 6th day, 24 h after administration): 697.7 ± 17.6 ^ mg/dl | Concentration of blood glucose 0 h (Alloxan diabetic mice; 2.0 mg/kg, non-fasting, 6th day, before administration): 614.3 ± 9.6 ^ mg/dl | Concentration of blood glucose (random) (Alloxan diabetic mice; 2.0 mg/kg, random blood glucose on the 28th day): 499.3 ± 13.0 mg/dL | Duration of hypoglycemic effect (Alloxan diabetic mice; 6th day, dapagliflozin 2.0 mg/kg, Compound 2 0.25-2.0 mg/kg): no significant effect after 24 h | inhibition at 10 µM (SGLT2; compound concentration 1 × 10^−5 mol/L): 106 ± 4.2% | inhibition at 10 pM (SGLT2; compound concentration 1 × 10^−11 mol/L): 1.9 ± 9.2% | inhibition at 1 pM (SGLT2; compound concentration 1 × 10^−12 mol/L): 6.8 ± 5.9% | inhibition at 0.05 µM (SGLT2; compound concentration 5 × 10^−8 mol/L): 84.3 ± 4% | inhibition at 0.005 µM (SGLT2; compound concentration 5 × 10^−9 mol/L): 84.8 ± 3.2% | inhibition at 0.0005 µM (SGLT2; compound concentration 5 × 10^−10 mol/L): 60.1 ± 2% | inhibition at 50 pM (SGLT2; compound concentration 5 × 10^−11 mol/L): 42 ± 2.8%
